Results from patent US11819499B2, “Single-dose, ready-to-use injectable formulations” (BioSplice Therapeutics, Inc., priority 2016, dated 2023).
Values belong to the compound of their own block, whether it stands above or below them.

Tests used:
Type in all cases: physicochemical
[1] = Dynamic vapor sorption (DVS) scan; conditions: at 90% RH
Source text: The purity of the Form 13 sample was 98.8%; the KF of an undried Form 13 sample was 35.7%.

[2] = Exposure to relative humidity / air followed by XRD
Source text: FIGS. 15A-15D are scans of Form 1 in the presence of increasing relative humidity (RH), an example of a non-stoichiometric or stoichiometric hydrate of polymorph Form 1 of the compound of Formula (I). FIG. 15A is an x-ray powder diffraction scan of Form 1 exposed to 10% RH as the anhydrous Form 1. FIG. 15B is an x-ray powder diffraction scan of Form 1 exposed to 20% RH as a partial hydrate of Form 1. FIG. 15C is an x-ray powder diffraction scan of Form 1 exposed to 30% RH as a hydrate of Form 1 (≈10-12% water uptake). FIG. 15D is an x-ray powder diffraction scan of Form 1 exposed to 90% RH as a full hydrate of Form 1 (≈17-20% water uptake). […] The hydrate lost its water below 30% RH. […] The crystal lattice of Form 1 expanded when water was sorbed, giving rise to XRD peaks at ˜5, ˜7 and ˜11 degrees while maintaining the main XRD pattern. The hydrates of Form 1 of a compound of Formula (I) (Form 11) were fully reversible, and lost water when exposed to % RH of less than 20%, turning Form 11 to hydrated forms of Form 1 and to the anhydrous Form 1. Solvates 1 and 2 solids were exposed to air overnight, and then analyzed by XRD. After the analysis, the solids were dried at 50° C. under vacuum, and then analyzed by XRD again.

[3] = Drying or heating in a DSC chamber followed by XRD (form conversion)
Description: The Form 1 solid was dried at 75° C. under vacuum overnight, and XRD, DSC, and TGA scans were performed. […] However, the DSC scans indicated the absence of endotherm. The loss of the early peak on the DSC scan had no effect on the XRD trace, showing that the wide endotherm between 50-100° C. on DSC scan was due to the free solvent.
The Form 1 solid was heated in a DSC chamber to 305° C. (past the endotherm/exotherm around 280° C.), and then scanned by XRD. […] It can be concluded that the endotherm/exotherm around 280° C. might be due to melting/crystallization events.
The Form 2 solid was heated in a DSC machine to 90° C. (past the wide endotherm between 50-100° C.); to 270° C. (past the endotherm/exotherm around 240° C.); and finally to 330° C. (past the […]). The residual solid was analyzed by XRD. […] The wide endotherm between 50-100° C. might be free solvent or hydrate. […] Thus, the exotherm around 290° C. was a re-crystallization event. According to an XRD and DSC overlay, the behavior of Form 2* was similar to Form 2.
This has been confirmed for Forms 1 and 2.
Form 13 solid was heated in a DSC chamber to 170° C. (past the endotherm between 50-100° C.), and then scanned by XRD. […] It can be concluded that the endotherm between 50-100° C. is due to bonded water.
Form 13 solid was heated in a DSC chamber to 330° C. (past the endotherm/exotherm around 300° C.), and then scanned by XRD. […] It can be concluded that the endotherm/exotherm is due to melting/crystallization events.

[4] = Exposure to relative humidity / air followed by XRD; remark: listed apart in the source
[5] = Reslurry experiments (polymorph screen) in 39 pure and binary solvents at RT and 50° C. for 5 days, XRD of wet and dry samples
Description: Reslurry experiments in various solvents were performed. Approximately 30-80 mg of the starting solid (a non-stoichiometric or stoichiometric hydrate of Form 1 having between 1% and about 20% by weight water) was slurried in 39 different solvents (pure and binary solvents; the ratio of organic solvent/water (V/V) was 95%/5%) at RT and 50° C. for 5 days. Three solvates, one hydrate, and eleven non-solvated forms were identified. […] XRD of both wet and dry samples were scanned (FIG. 12A (dry sample)).
The slurry experiments identified 3 solvated forms from wet samples (Solvates 1, 2, and 3); 2 non-stoichiometric hydrates of Form 1 (Forms 12 and 13); and 11 non-solvated forms (Forms 1-11). In some instances, similar XRD scans with minor differences were obtained. These were considered to be part of the same class (e.g., the same form). For example, XRD scans of Form 2 and Form 2* were similar and were considered to belong to the same class. The solvated forms were obtained from wet sample analysis; after drying, the sample indicated a different XRD.
Solvate 1 was obtained from acetone at RT, and after drying, a low crystallinity solid was generated. Solvate 2 was obtained from acetone (at RT) and acetone/water (at RT), and after drying, Form 4** was generated. Solvate 3 was obtained from EtOH/water at RT, and after drying, Form 2 was generated.

[6] = Competitive slurry experiments between polymorph forms (15 forms mixed, 3-5 days, XRD); conditions: water at RT and 50° C.
Description: In order to find out the thermodynamic stability between the different forms, several competitive slurry experiments were carried out. Form 1, Form 2, Form 2*, Form 3, Form 4, Form 4*, Form 4**, Form 5, Form 7, Form 8, Form 9, Form 10, Form 11, Form 11*, and Form 13 (10 mg for each) was mixed and slurried in 2 mL of solvent at both RT and 50° C. The solids were slurried for 3-5 days and then analyzed by XRD.

[7] = Solubility of the starting solid by the gravimetric method; conditions: at RT and at 50° C. in all solvents tested except DMF and DMSO
[8] = reslurry in Acetonitrile/water (5% water), 50° C.
[9] = reslurry in DCM/water (5% water), 50° C.
[10] = reslurry in DCM/water (5% water), RT
[11] = reslurry in Heptane/water (5% water), 50° C.
[12] = reslurry in Heptane/water (5% water), RT
[13] = reslurry in IPAc/water (5% water), 50° C.
[14] = reslurry in MA/water (5% water), RT
[15] = reslurry in MIBK/water (5% water), 50° C.
[16] = reslurry in MeOH/water (5% water), 50° C.
[17] = reslurry in MtBE/water (5% water), 50° C.
[18] = reslurry in Toluene/water (5% water), 50° C.
[19] = reslurry in Toluene/water (5% water), RT
[20] = reslurry in n-Butanol/water (5% water), 50° C.
[21] = reslurry in n-Butanol/water (5% water), RT
[22] = reslurry in n-Butyl acetate/water (5% water), 50° C.
[23] = reslurry in n-Butyl acetate/water (5% water), RT

water absorption (DVS scan) [1]: 17%
water uptake ([2]; exposed to 30% RH (FIG. 15C), hydrate of Form 1): 10-12%
water uptake ([2]; exposed to 90% RH (FIG. 15D), full hydrate of Form 1): 17-20%
form when exposed to air ([2]; exposed to air): converts to Form 13
XRD after drying ([3]; dried at 75° C. under vacuum overnight): no change
form after heating (XRD) ([3]; heated in a DSC chamber to 305° C.): converted to Form 9
form when heated to just before melting ([3]; heated to just before melting at 364° C.): convert to Form 9
RH above which Form 1 tended to convert to hydrate of Form 1 (Form 13) [4]: above 4050%
Compound: CC(C)CC(=O)Nc1cncc(-c2ccc3[nH]nc(-c4nc5c(-c6cccc(F)c6)cncc5[nH]4)c3c2)c1 [Form 1, N-(5-(3-(7-(3-fluorophenyl)-3H-imidazo[4,5-c]pyridin-2-yl)-1H-indazol-5-yl)pyridin-3-yl)-3-methylbutanamide]

Dry (form by XRD) [5, 8]: Form 13
Wet (form by XRD) [5, 8]: Form 13
Dry (form by XRD) ([5]; reslurry in DCM, 50° C.): Form 13
Wet (form by XRD) ([5]; reslurry in DCM, 50° C.): Form 13
Dry (form by XRD) [5, 9]: Form 1
Wet (form by XRD) [5, 9]: Form 13
Dry (form by XRD) [5, 10]: Form 1
Wet (form by XRD) [5, 10]: Form 13
Dry (form by XRD) ([5]; reslurry in Heptane, 50° C.): Form 13
Wet (form by XRD) ([5]; reslurry in Heptane, 50° C.): Form 13
Dry (form by XRD) [5, 11]: Form 1
Wet (form by XRD) [5, 11]: Form 13
Dry (form by XRD) [5, 12]: Form 12
Wet (form by XRD) [5, 12]: Form 13
Dry (form by XRD) [5, 13]: Form 13
Wet (form by XRD) [5, 13]: Form 13
Dry (form by XRD) [5, 14]: Form 1
Wet (form by XRD) [5, 14]: Form 13
Dry (form by XRD) [5, 15]: Form 1
Wet (form by XRD) [5, 15]: Form 13
Dry (form by XRD) ([5]; reslurry in MeOH, RT): Form 1
Wet (form by XRD) ([5]; reslurry in MeOH, RT): Form 13
Dry (form by XRD) [5, 16]: Form 13
Wet (form by XRD) [5, 16]: Form 13
Dry (form by XRD) [5, 17]: Form 13
Wet (form by XRD) [5, 17]: Form 13
Dry (form by XRD) [5, 18]: Form 13
Wet (form by XRD) [5, 18]: Form 13
Dry (form by XRD) [5, 19]: Form 1
Wet (form by XRD) [5, 19]: Form 13
Dry (form by XRD) [5, 20]: Form 1
Wet (form by XRD) [5, 20]: Form 13
Dry (form by XRD) [5, 21]: Form 13
Wet (form by XRD) [5, 21]: Form 13
Dry (form by XRD) [5, 22]: Form 1
Wet (form by XRD) [5, 22]: Form 13
Dry (form by XRD) [5, 23]: Form 12
Wet (form by XRD) [5, 23]: Form 13
Dry (form by XRD) ([5]; reslurry in water, 50° C.): Form 13
Wet (form by XRD) ([5]; reslurry in water, 50° C.): Form 13
Dry (form by XRD) ([5]; reslurry in water, RT): Form 1
Wet (form by XRD) ([5]; reslurry in water, RT): Form 13
water absorption (DVS scan) [1]: 17%
RH below which the hydrate lost its water ([2]; relative humidity): below 30%
form after heating (XRD) ([3]; heated in a DSC chamber to 170° C.): converted to Form 1
form after heating (XRD) ([3]; heated to 330° C.): converted to Form 9
form upon drying ([3]; upon drying): converted to Form 1
thermodynamic stability between forms (competitive slurry) [6]: most stable
Compound: CC(C)CC(=O)Nc1cncc(-c2ccc3[nH]nc(-c4nc5c(-c6cccc(F)c6)cncc5[nH]4)c3c2)c1 [Form 13, N-(5-(3-(7-(3-fluorophenyl)-3H-imidazo[4,5-c]pyridin-2-yl)-1H-indazol-5-yl)pyridin-3-yl)-3-methylbutanamide]

Solubility (in words) [7]: low solubility
Compound: CC(C)CC(=O)Nc1cncc(-c2ccc3[nH]nc(-c4nc5c(-c6cccc(F)c6)cncc5[nH]4)c3c2)c1 [starting solid, N-(5-(3-(7-(3-fluorophenyl)-3H-imidazo[4,5-c]pyridin-2-yl)-1H-indazol-5-yl)pyridin-3-yl)-3-methylbutanamide]
